Experiment: recombinant barcode read abundance after kanamycin selection (control-corrected) (log10(CPM+1)); higher = more efficient recombination; sequences stand for … in AGTGCAGAGAAAATCGGCCAGTTTTCTCTGCCTGCAGTCCGCATGCCGT…AGATTTATGCAGCGGACTGCCTTTCTCCCAAAGTGATAAACCGGACAGTATCATGGACCGGTTTTCCCGGTAATCCGTATTTGCAAGGTTGGTTTCACT; site = the 11-nt target
In short: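 Reported as log10(CPM+1), each value stands for recombination efficiency. That efficiency is the averaged, control-corrected counts per million of barcodes found at recombinant junctions. Cells from a pooled E. coli library pairing targets with IS621 bridge RNA target-binding loops were plated twice on chloramphenicol/ampicillin LB agar (control) and twice on chloramphenicol/ampicillin/kanamycin with 0.1 mM IPTG.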
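Note: IS621 recombinase and bridge RNA in Escherichia coli cells.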

Sequence	recombinant barcode read abundance (log10)
GTCATACCTTGGGTTCTAACCTGTTGCCT (site GTCATACCTAG)	1.02
GTCATACCTTGGGTTCTAACCTGTTGCCT (site GTCCTACCTAG)	0.0356
GTCATACCTTGGGTTCTAACCTGTTGCCT (site GTCGTACCTAG)	0.111
GTCATACCTTGGGTTCTAACCTGTTGCCT (site GTCTTACCTAG)	0.203
GTCATGCCTTGGGTTCTAACCTGTTGCCT (site GGCCTGCCTAG)	0.0766
GTCATGCCTTGGGTTCTAACCTGTTGCCT (site GTCATGCCTAG)	1.1
GTCCACCCTTGGGTTCTAACCTGTTGCAG (site GTCCACCCTCT)	1.86
GTCCACCCTTGGGTTCTAACCTGTTGCAG (site GTCCACTCTGT)	0.01
GTCCACTCTTGGGTTCTAACCTGTTGCTT (site GTCCACTCTAA)	1.46
GTCCACTCTTGGGTTCTAACCTGTTGCTT (site GTCCAGTCTAC)	0
GTCCAGGCTTGGGTTCTAACCTGTTGCGG (site GACCAGTCTCC)	0.421
GTCCAGGCTTGGGTTCTAACCTGTTGCGG (site GTCCAGGCTCC)	0.924
GTCCCTCCTTGGGTTCTAACCTGTTGCCT (site GTCCCTCCTAA)	0.187
GTCCCTCCTTGGGTTCTAACCTGTTGCCT (site GTCCCTCCTAC)	0.116
GTCCCTCCTTGGGTTCTAACCTGTTGCCT (site GTCCCTCCTAG)	0.709
GTCCCTCCTTGGGTTCTAACCTGTTGCCT (site GTCCCTCCTAT)	0.586
GTCCGAACTTGGGTTCTAACCTGTTGCCA (site GTCCGAACTTG)	0.428
GTCCGAACTTGGGTTCTAACCTGTTGCCA (site GTCGGAGCTTG)	0.0199
GTCCGTCCTTGGGTTCTAACCTGTTGCCT (site GTCCGTCCTAA)	0.119
GTCCGTCCTTGGGTTCTAACCTGTTGCCT (site GTCCGTCCTAC)	0.0319
GTCCGTCCTTGGGTTCTAACCTGTTGCCT (site GTCCGTCCTAG)	0.833
GTCCGTCCTTGGGTTCTAACCTGTTGCCT (site GTCCGTCCTAT)	0.0563

Sequence	recombinant barcode read abundance (log10)
GTCCGTCCTTGGGTTCTAACCTGTTGCGT (site GTCCGTCCTAA)	0.139
GTCCGTCCTTGGGTTCTAACCTGTTGCGT (site GTCCGTCCTAC)	1.69
GTCCGTCCTTGGGTTCTAACCTGTTGCGT (site GTCCGTCCTAG)	0.09
GTCCGTCCTTGGGTTCTAACCTGTTGCGT (site GTCCGTCCTAT)	0.504
GTCCTATCTTGGGTTCTAACCTGTTGCTA (site AGGTCTACTGT)	0.146
GTCCTATCTTGGGTTCTAACCTGTTGCTA (site GTCCTATCTTA)	0.656
GTCCTGTCTTGGGTTCTAACCTGTTGCCG (site GTCCTGTCTCG)	1.16
GTCCTGTCTTGGGTTCTAACCTGTTGCCG (site GTCGTGTCTCG)	0.397
GTCGACCCTTGGGTTCTAACCTGTTGCCT (site GTCGACCCTAG)	1.98
GTCGACCCTTGGGTTCTAACCTGTTGCCT (site GTCGACGCTAG)	0.136
GTCGCGACTTGGGTTCTAACCTGTTGCCT (site GTCGCGACTAG)	0.0792
GTCGCGACTTGGGTTCTAACCTGTTGCCT (site GTCGCGCCTAG)	0.353
GTCGCGACTTGGGTTCTAACCTGTTGCCT (site GTCGCGGCTAG)	0.145
GTCGCGACTTGGGTTCTAACCTGTTGCCT (site GTCGCGTCTAG)	0.215
GTCGGAGCTTGGGTTCTAACCTGTTGCCA (site GTCCGAACTTG)	0.0692
GTCGGAGCTTGGGTTCTAACCTGTTGCCA (site GTCGGAGCTTG)	0.959
GTCGGGCCTTGGGTTCTAACCTGTTGCCT (site ATCGGGCCTAG)	0.0962
GTCGGGCCTTGGGTTCTAACCTGTTGCCT (site CTCGGGCCTAG)	0.0668
GTCGGGCCTTGGGTTCTAACCTGTTGCCT (site GTCGGGCCTAG)	0.686
GTCGGGCCTTGGGTTCTAACCTGTTGCCT (site TTCGGGCCTAG)	0.126
GTCGTGTCTTGGGTTCTAACCTGTTGCCG (site GTCCTGTCTCG)	0.0845
GTCGTGTCTTGGGTTCTAACCTGTTGCCG (site GTCGTGTCTCG)	1.28

Sequence	recombinant barcode read abundance (log10)
GTCGTTGCTTGGGTTCTAACCTGTTGCCT (site ATCGTTGCTAG)	0.522
GTCGTTGCTTGGGTTCTAACCTGTTGCCT (site CTCGTTGCTAG)	0.0407
GTCGTTGCTTGGGTTCTAACCTGTTGCCT (site GTCGTTGCTAG)	1.07
GTCGTTGCTTGGGTTCTAACCTGTTGCCT (site TTCGTTGCTAG)	1.19
GTCTAATCTTGGGTTCTAACCTGTTGCCT (site GTCTAATCTAG)	0.719
GTCTAATCTTGGGTTCTAACCTGTTGCCT (site GTCTCATCTAG)	0.271
GTCTAATCTTGGGTTCTAACCTGTTGCCT (site GTCTGATCTAG)	0.174
GTCTAATCTTGGGTTCTAACCTGTTGCCT (site GTCTTATCTAG)	0.0315
GTCTACGCTTGGGTTCTAACCTGTTGCCA (site GTCTAAGCTCG)	0.0189
GTCTACGCTTGGGTTCTAACCTGTTGCCA (site GTCTACGCTTG)	0.253
GTCTCACCTTGGGTTCTAACCTGTTGCGG (site GTATCTCCTCC)	0.094
GTCTCACCTTGGGTTCTAACCTGTTGCGG (site GTCTCACCTCC)	0.91
GTCTGTTCTTGGGTTCTAACCTGTTGCCT (site GACTGTTCTAG)	0.17
GTCTGTTCTTGGGTTCTAACCTGTTGCCT (site GCCTGTTCTAG)	0.071
GTCTGTTCTTGGGTTCTAACCTGTTGCCT (site GGCTGTTCTAG)	0.16
GTCTGTTCTTGGGTTCTAACCTGTTGCCT (site GTCTGTTCTAG)	0.852
GTCTTCTCTTGGGTTCTAACCTGTTGCTT (site GTCTACTCTCA)	0.0691
GTCTTCTCTTGGGTTCTAACCTGTTGCTT (site GTCTTCTCTAA)	0.487
GTGAAGCCTTGGGTTCTAACCTGTTGCCA (site GTGAAGCCTTG)	0.758
GTGAAGCCTTGGGTTCTAACCTGTTGCCA (site GTGTATCCTTG)	0.165
GTGAGAGCTTGGGTTCTAACCTGTTGCGG (site GTGAGAGCTCC)	1.43
GTGAGAGCTTGGGTTCTAACCTGTTGCGG (site GTGAGCACTCC)	0.0453

Sequence	recombinant barcode read abundance (log10)
GTGAGCACTTGGGTTCTAACCTGTTGCTA (site AATTAGCCTAG)	0.0422
GTGAGCACTTGGGTTCTAACCTGTTGCTA (site GTGAGCACTTA)	0.337
GTGAGGACTTGGGTTCTAACCTGTTGCCT (site ATGAGGACTAG)	0.739
GTGAGGACTTGGGTTCTAACCTGTTGCCT (site CTGAGGACTAG)	0.133
GTGAGGACTTGGGTTCTAACCTGTTGCCT (site GTGAGGACTAG)	1.49
GTGAGGACTTGGGTTCTAACCTGTTGCCT (site TTGAGGACTAG)	0.316
GTGAGGACTTGGGTTCTAACCTGTTGCGT (site GTGAGGACTAC)	3.11
GTGAGGACTTGGGTTCTAACCTGTTGCGT (site GTGCGGACTAC)	0.236
GTGAGGACTTGGGTTCTAACCTGTTGCTG (site GTGAGGACTCA)	2.68
GTGAGGACTTGGGTTCTAACCTGTTGCTG (site GTGTGGACTCT)	0.0356
GTGATAGCTTGGGTTCTAACCTGTTGCGG (site GATATAGCTCC)	0.16
GTGATAGCTTGGGTTCTAACCTGTTGCGG (site GTGATAGCTCC)	1.12
GTGATCCCTTGGGTTCTAACCTGTTGCCT (site GAGATCCCTAG)	0.585
GTGATCCCTTGGGTTCTAACCTGTTGCCT (site GTGATCCCTAG)	1.18
GTGCACCCTTGGGTTCTAACCTGTTGCTT (site GGGCATCCTAA)	0.115
GTGCACCCTTGGGTTCTAACCTGTTGCTT (site GTGCACCCTAA)	1.57
GTGCCTGCTTGGGTTCTAACCTGTTGCCT (site GCGCATGCTAG)	0.039
GTGCCTGCTTGGGTTCTAACCTGTTGCCT (site GTGCCTGCTAG)	1.05
GTGCGCCCTTGGGTTCTAACCTGTTGCGG (site GTGCGCCCTAC)	0.369
GTGCGCCCTTGGGTTCTAACCTGTTGCGG (site GTGCGCCCTCC)	1.28

Reference: the supplement of paper PMC11208160
